One experiment has as its target T1, CFTR G551D mutant (Homo sapiens, UniProt P13569, G551D).
T1 construct: expressed in transfected cells; host or cells: HEK293 cells, reverse transfection with plasmids
Briefly: YFP-halide influx assay for the CFTR-G551D mutation (HEK293 cells). The conditions noted are these: forskolin 10.67 μM. The experiment is classed as cell-based. The text has this: (§1) The YFP halide influx assay measured the functionality of the cystic fibrosis Transmembrane Conductance regulator (CFTR) channels. The assay was used to evaluate the capacity of compounds to increase the channel opening of existing mutant CFTR channels in the membrane. It makes use of the observation that the yellow fluorescent protein (YFP) variant YFP H148Q, I152L, F47L has its fluorescence substantially quenched by halide ions like Cl^− and I^− (Galietta, L. J. V., Haggie, P. M., Verkman, A. S., 2001. Green fluorescent protein-based halide indicators with improved chloride and iodide affinities. FEBS Lett. 499, 220-224. doi:10.1016/S0014-5793(01)02561-3).
For this purpose, HEK293-cells were seeded in 96 well plates. During seeding, the cells were reverse-transfected with plasmid vectors that direct the expression of the CFTR G551D mutant and of the YFP reporter. Cells were incubated at 37° C., 5% CO2 for 24 hours so as to allow for sufficient expression of the CFTR protein.
The I^−-induced quenching of fluorescence was recorded immediately after injection of I^− for 7 seconds. The capacity of a compound to increase the channel opening was directly correlated with the decrease in fluorescence, and was expressed as (1−(fluorescence after 7 seconds (F)/fluorescence before injection (F0))) and an EC50 was derived from a (1−F/F0) vs compound concentration plot.

The target of a further experiment is T2, CFTR ΔF508 mutant (Homo sapiens, UniProt P13569, DEL508-508).
T2 construct: expressed in transfected cells; host or cells: CFBE41o- cells, adenoviral transduction
T2 sequence (P13569 with tags, fused parts or gaps DEL508-508): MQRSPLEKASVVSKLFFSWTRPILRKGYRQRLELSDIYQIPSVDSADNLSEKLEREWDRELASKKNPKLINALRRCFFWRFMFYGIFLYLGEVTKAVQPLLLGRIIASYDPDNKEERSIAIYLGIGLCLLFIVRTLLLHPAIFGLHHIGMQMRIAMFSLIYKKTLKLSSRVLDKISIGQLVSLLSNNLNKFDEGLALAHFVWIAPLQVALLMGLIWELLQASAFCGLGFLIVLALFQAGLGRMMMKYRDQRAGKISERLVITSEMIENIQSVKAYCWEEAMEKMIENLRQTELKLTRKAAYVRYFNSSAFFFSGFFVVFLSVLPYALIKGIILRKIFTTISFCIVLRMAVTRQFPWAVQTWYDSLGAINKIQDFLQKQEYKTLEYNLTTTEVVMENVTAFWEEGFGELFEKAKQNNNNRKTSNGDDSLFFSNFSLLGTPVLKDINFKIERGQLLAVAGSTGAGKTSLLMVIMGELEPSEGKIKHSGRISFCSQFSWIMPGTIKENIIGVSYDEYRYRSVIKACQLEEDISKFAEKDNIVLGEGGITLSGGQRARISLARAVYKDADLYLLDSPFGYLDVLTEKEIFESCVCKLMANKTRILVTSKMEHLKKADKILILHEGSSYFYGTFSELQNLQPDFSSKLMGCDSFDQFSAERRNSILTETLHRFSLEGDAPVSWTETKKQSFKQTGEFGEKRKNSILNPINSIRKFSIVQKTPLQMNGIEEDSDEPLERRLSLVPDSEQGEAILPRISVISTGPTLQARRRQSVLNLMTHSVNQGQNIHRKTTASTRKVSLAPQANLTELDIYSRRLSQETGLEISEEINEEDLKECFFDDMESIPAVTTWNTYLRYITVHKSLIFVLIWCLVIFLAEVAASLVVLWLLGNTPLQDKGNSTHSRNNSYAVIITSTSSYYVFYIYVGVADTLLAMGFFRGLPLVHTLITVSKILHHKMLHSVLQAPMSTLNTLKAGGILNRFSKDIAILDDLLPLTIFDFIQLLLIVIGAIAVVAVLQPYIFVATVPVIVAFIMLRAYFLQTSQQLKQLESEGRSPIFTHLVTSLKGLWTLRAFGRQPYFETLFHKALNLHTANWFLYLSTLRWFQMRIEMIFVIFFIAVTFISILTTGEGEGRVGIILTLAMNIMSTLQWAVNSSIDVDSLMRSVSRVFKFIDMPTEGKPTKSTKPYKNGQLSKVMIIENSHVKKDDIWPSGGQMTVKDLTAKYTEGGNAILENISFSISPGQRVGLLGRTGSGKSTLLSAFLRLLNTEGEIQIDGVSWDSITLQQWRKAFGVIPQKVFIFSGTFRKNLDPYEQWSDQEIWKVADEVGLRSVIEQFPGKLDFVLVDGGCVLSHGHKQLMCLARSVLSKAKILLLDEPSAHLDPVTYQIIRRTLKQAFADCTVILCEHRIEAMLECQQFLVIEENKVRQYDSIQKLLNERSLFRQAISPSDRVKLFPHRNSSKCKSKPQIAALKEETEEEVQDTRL
Briefly: YFP-halide influx assay for the CFTR-ΔF508 mutation (CFBE41o- cells). The experiment is classed as cell-based. The conditions noted are these: forskolin 10.67 μM; for EC50: from (1−F/F0) vs concentration plot.
Text: as §1, with “channels in the cystic fibrosis bronchial epithelium cell line CFBE41o-.” for “channels.”, “open probability” for “channel opening”, “existing” for “existing mutant”, “doi:10.1016/S0014-5793(01)02561-3; Nagai, T., Ibata, K., Park, E. S., Kubota, M., Mikoshiba, K., Miyawaki, A., 2002. A variant of yellow fluorescent protein with fast and efficient maturation for cell-biological applications. Nat. Biotechnol. 20, 87-90. doi: 10.1038/nbt0102-87).” for “doi:10.1016/S0014-5793(01)02561-3).”
For this purpose, CFBE41o-cells were seeded in 384 well plates (3000 CFBE cells/well). One day after seeding, the CFBE cells were transduced with adenoviral vectors that direct the expression of the CFTR ΔF508 mutant and of the YFP reporter. Cells were incubated at 27° C., 5% CO2 for 24 hours so as to allow for the proper folding and migration to the membrane of the CFTR channel or treated with a CFTR modulator during 24 hours at 37° C.
The I-induced quenching of fluorescence was recorded on an immediately after injection of iodide for 2 minutes on an FDSS/μCell (Hamamatsu). The capacity of a compound to increase the channel opening was directly correlated with the decrease in fluorescence, and was expressed as (1−(fluorescence after 36 seconds (F)/fluorescence before injection (F0))) and an EC50 was derived from a (1−F/F0) vs compound concentration plot.

The structures appear in SMILES notation.

T1 sequence (P13569 whole entry G551D): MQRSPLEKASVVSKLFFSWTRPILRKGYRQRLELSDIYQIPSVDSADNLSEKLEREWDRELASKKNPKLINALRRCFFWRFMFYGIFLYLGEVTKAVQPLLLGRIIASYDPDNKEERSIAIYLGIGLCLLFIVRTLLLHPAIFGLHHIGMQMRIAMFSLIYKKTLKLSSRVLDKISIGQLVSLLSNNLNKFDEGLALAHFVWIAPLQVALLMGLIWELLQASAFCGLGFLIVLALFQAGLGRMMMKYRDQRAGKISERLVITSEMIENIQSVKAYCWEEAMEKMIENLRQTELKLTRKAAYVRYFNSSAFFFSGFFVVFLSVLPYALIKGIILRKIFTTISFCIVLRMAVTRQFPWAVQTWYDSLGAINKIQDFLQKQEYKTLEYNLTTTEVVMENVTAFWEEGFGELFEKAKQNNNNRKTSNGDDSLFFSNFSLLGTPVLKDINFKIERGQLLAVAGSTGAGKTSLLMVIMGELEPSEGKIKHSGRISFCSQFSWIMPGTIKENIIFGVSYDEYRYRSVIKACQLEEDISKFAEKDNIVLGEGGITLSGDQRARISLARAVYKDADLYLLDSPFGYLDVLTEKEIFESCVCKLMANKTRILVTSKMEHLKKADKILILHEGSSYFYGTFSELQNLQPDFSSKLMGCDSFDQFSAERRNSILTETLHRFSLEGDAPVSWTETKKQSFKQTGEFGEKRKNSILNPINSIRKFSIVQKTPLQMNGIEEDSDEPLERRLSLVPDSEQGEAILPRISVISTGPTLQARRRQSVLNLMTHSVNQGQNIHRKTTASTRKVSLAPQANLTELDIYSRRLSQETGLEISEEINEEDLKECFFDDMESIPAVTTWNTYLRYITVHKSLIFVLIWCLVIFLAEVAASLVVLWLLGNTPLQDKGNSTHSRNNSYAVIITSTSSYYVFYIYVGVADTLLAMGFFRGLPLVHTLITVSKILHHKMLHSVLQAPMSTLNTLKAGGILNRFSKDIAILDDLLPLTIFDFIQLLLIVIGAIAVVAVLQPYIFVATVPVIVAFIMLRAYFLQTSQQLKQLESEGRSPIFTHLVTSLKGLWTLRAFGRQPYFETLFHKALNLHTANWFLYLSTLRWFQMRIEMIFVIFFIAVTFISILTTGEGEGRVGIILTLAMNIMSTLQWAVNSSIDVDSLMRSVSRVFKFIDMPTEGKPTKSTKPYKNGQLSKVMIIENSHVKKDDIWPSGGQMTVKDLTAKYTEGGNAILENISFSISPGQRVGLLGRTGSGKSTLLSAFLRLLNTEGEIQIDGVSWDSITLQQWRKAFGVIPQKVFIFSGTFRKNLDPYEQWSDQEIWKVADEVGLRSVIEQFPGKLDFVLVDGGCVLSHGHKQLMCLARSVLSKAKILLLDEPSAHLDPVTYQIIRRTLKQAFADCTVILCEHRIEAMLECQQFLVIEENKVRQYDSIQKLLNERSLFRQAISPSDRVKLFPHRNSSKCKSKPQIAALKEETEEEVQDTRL

As for `CC1CCOCC1CNC(=O)c1ncc(S(=O)(=O)c2ccc(OC(F)(F)F)cc2)cc1N` (centres unmarked) [Compound 156, 3-amino-N-[(4-methyltetrahydro-2H-pyran-3-yl)methyl]-5-{[4-(trifluoromethoxy)phenyl]sulfonyl}pyridine-2-carboxamide], the entries for the “% Activation” value on CFTR G551D mutant and at CFTR ΔF508 mutant were 63.5% and 94.0%, respectively. Moreover, the concentration giving a half-maximal response (EC50) (as a rule, the concentration at which the effect is half-maximal) came out at 1.39 µM on CFTR G551D mutant and 0.238 µM on CFTR ΔF508 mutant.
In the case of `CC1CCCN(S(=O)(=O)c2cnc(C(=O)NCC(O)C(F)(F)F)c(N)c2)C1` (centres unmarked) [Compound 182, 3-amino-5-[(3-methylpiperidin-1-yl)sulfonyl]-N-(3,3,3-trifluoro-2-hydroxypropyl)pyridine-2-carboxamide], at CFTR G551D mutant, the “% Activation” value came out at 51.3% and the half-maximal effective concentration (EC50) stood at 0.645 µM. For the same molecule, on CFTR ΔF508 mutant, the “% Activation” value was 112.7% and the EC50 stood at 0.0047 µM.
With `COC1CN(C(=O)c2ncc(S(=O)(=O)c3ccc(OC(F)(F)F)cc3)cc2N)C1` [Compound 42, (3-amino-5-{[4-(trifluoromethoxy)phenyl]sulfonyl}pyridin-2-yl)(3-methoxyazetidin-1-yl)methanone], on CFTR G551D mutant, the “% Activation” value is given as 64.3% and the half-maximal effective concentration (EC50) was greater than 3.33 µM. Besides, at CFTR ΔF508 mutant, the “% Activation” value worked out at 105.5% and the EC50 worked out at 0.0371 µM.
In the case of `C[C@H]1CCCN1S(=O)(=O)c1cnc(C(=O)N2CC(O)C2)c(N)c1` [Compound 272, (3-amino-5-{[(2S)-2-methylpyrrolidin-1-yl]sulfonyl}pyridin-2-yl) (3-hydroxyazetidin-1-yl)methanone], on CFTR G551D mutant, the “% Activation” value is 2.8% and the EC50 is greater than 5 µM. Moreover, on CFTR ΔF508 mutant, the “% Activation” value amounted to 82.0% and the concentration giving a half-maximal response (EC50) is greater than 0.334 µM.
With `CC1(C)CN(S(=O)(=O)c2cnc(C(=O)NCC(O)C(F)(F)F)c(N)c2)C1` (centres unmarked) [Compound 199, 3-amino-5-[(3,3-dimethylazetidin-1-yl)sulfonyl]-N-(3,3,3-trifluoro-2-hydroxypropyl)pyridine-2-carboxamide], the “% Activation” value turned out to be 65.0% at CFTR G551D mutant and 114.1% at CFTR ΔF508 mutant. Moreover, the EC50 at CFTR G551D mutant is 1.43 µM; on CFTR ΔF508 mutant, 0.0216 µM.
For `CCC(CO)NC(=O)c1ncc(S(=O)(=O)c2ccc(OC(F)(F)F)cc2)cc1N` (centres unmarked) [Compound 12, 3-amino-N-(1-hydroxybutan-2-yl)-5-{[4-(trifluoromethoxy)phenyl]sulfonyl}pyridine-2-carboxamide], at CFTR G551D mutant, the “% Activation” value is 43.8% and the midpoint of the response, the EC50, lay at 0.692 µM. Further, at CFTR ΔF508 mutant, the “% Activation” value stood at 114.5% and a half-maximal effect (EC50) was put at 0.0361 µM.
Regarding `Nc1cc(S(=O)(=O)c2ccccc2)c(C2CC2)nc1C(=O)NCCO` [Compound 260, 3-amino-6-cyclopropyl-N-(2-hydroxyethyl)-5-(phenylsulfonyl)pyridine-2-carboxamide], at CFTR ΔF508 mutant, the “% Activation” value was 85.2% and the midpoint of the response, the EC50, lay at 0.0425 µM.
Turning to `Nc1cc(S(=O)(=O)N2CCCC(F)(F)C2)cnc1C(=O)NCC(O)C(F)(F)F` (centres unmarked) [Compound 183, 3-amino-5-[(3,3-difluoropiperidin-1-yl)sulfonyl]-N-(3,3,3-trifluoro-2-hydroxypropyl)pyridine-2-carboxamide], the results for the “% Activation” value on CFTR G551D mutant and on CFTR ΔF508 mutant were 42.0% and 103.7%, respectively. Moreover, the results for the EC50 on CFTR G551D mutant and on CFTR ΔF508 mutant were 1.13 µM and 0.0208 µM, respectively.
With `COC[C@H](O)CNC(=O)c1ncc(S(=O)(=O)c2ccccc2)cc1N` [Compound 296, 3-amino-N-[(2R)-2-hydroxy-3-methoxypropyl]-5-(phenylsulfonyl)pyridine-2-carboxamide], on CFTR ΔF508 mutant, the “% Activation” value is reported as 82.1% and the EC50 is 0.04 µM.
With `CC(CC(N)=O)NC(=O)c1ncc(S(=O)(=O)c2ccc(OC(F)(F)F)cc2)cc1N` (centres unmarked) [Compound 55, 3-amino-N-(4-amino-4-oxobutan-2-yl)-5-{[4-(trifluoromethoxy)phenyl]sulfonyl}pyridine-2-carboxamide], on CFTR ΔF508 mutant, the “% Activation” value was 37.6% and the EC50 is greater than 2 µM.
With `CCNC(=O)CNC(=O)c1ncc(S(=O)(=O)c2ccc(OC(F)(F)F)cc2)cc1N` [Compound 48, 3-amino-N-[2-(ethylamino)-2-oxoethyl]-5-{[4-(trifluoromethoxy)phenyl]sulfonyl}pyridine-2-carboxamide], at CFTR ΔF508 mutant, the “% Activation” value is given as 103.0% and the concentration for a half-maximal effect (EC50) worked out at 0.0211 µM.
On to `CC(C)[C@H](NC(=O)c1ncc(S(=O)(=O)c2ccc(OC(F)(F)F)cc2)cc1N)C(N)=O` [Compound 49, 3-amino-N-[(2S)-1-amino-3-methyl-1-oxobutan-2-yl]-5-{[4-(trifluoromethoxy)phenyl]sulfonyl}pyridine-2-carboxamide], for which, at CFTR ΔF508 mutant, the “% Activation” value worked out at 132.0% and the midpoint of the response, the EC50, lay at 0.125 µM.
As for `Cc1ccc(C(CO)NC(=O)c2ncc(S(=O)(=O)c3ccc(OC(F)(F)F)cc3)cc2N)cc1` (centres unmarked) [Compound 41, 3-amino-N-[2-hydroxy-1-(4-methylphenyl)ethyl]-5-{[4-(trifluoromethoxy)phenyl]sulfonyl}pyridine-2-carboxamide], on CFTR ΔF508 mutant, the “% Activation” value amounted to 101.0% and the EC50 came out at 0.184 µM.
For `CNC(=O)[C@@H](NC(=O)c1ncc(S(=O)(=O)c2ccc(OC(F)(F)F)cc2)cc1N)C(C)(C)C` [Compound 47, 3-amino-N-[(2S)-3,3-dimethyl-1-(methylamino)-1-oxobutan-2-yl]-5-{[4-(trifluoromethoxy)phenyl]sulfonyl}pyridine-2-carboxamide] the same measures were 84.8% and 0.503 µM.
For `Nc1cc(S(=O)(=O)c2ccc(OC(F)(F)F)cc2)cnc1C(=O)NC(CO)CO` [Compound 44, 3-amino-N-(1,3-dihydroxypropan-2-yl)-5-{[4-(trifluoromethoxy)phenyl]sulfonyl}pyridine-2-carboxamide] the same measures were 73.9% and 0.323 µM.
For the molecule `CCNC(=O)C(C)NC(=O)c1ncc(S(=O)(=O)c2ccc(OC(F)(F)F)cc2)cc1N` (centres unmarked) [Compound 43, 3-amino-N-[1-(ethylamino)-1-oxopropan-2-yl]-5-{[4-(trifluoromethoxy)phenyl]sulfonyl}pyridine-2-carboxamide], on CFTR ΔF508 mutant, the “% Activation” value stood at 92.6% and the half-maximal effective concentration (EC50) came to 0.236 µM.
Consider `Nc1cc(S(=O)(=O)c2ccc(OC(F)(F)F)cc2)cnc1C(=O)NC1(C(F)(F)F)CCOCC1` [Compound 193, 3-amino-5-{[4-(trifluoromethoxy)phenyl]sulfonyl}-N-[4-(trifluoromethyl)tetrahydro-2H-pyran-4-yl]pyridine-2-carboxamide], for which, at CFTR ΔF508 mutant, the “% Activation” value turned out to be 26.7% and the 50% effective concentration (EC50) was greater than 2 µM.
Take `COc1ccc(C(CO)NC(=O)c2ncc(S(=O)(=O)c3ccc(OC(F)(F)F)cc3)cc2N)cc1` (centres unmarked) [Compound 96, 3-amino-N-[2-hydroxy-1-(4-methoxyphenyl)ethyl]-5-{[4-(trifluoromethoxy)phenyl]sulfonyl}pyridine-2-carboxamide]: at CFTR ΔF508 mutant, the “% Activation” value is on record as 105.0% and the concentration for a half-maximal effect (EC50) stood at 0.245 µM.
Turning to `Nc1cc(S(=O)(=O)c2ccc(OC(F)(F)F)cc2)cnc1C(=O)NCCCCO` [Compound 45, 3-amino-N-(4-hydroxybutyl)-5-{[4-(trifluoromethoxy)phenyl]sulfonyl}pyridine-2-carboxamide], at CFTR ΔF508 mutant, the “% Activation” value is 93.6% and the EC50 was 0.0837 µM.
Turning to `CC(C)C[C@H](NC(=O)c1ncc(S(=O)(=O)c2ccc(OC(F)(F)F)cc2)cc1N)C(N)=O` [Compound 56, N^2-[(3-amino-5-{[4-(trifluoromethoxy)phenyl]sulfonyl}pyridin-2-yl)carbonyl]-L-leucinamide], on CFTR ΔF508 mutant, the “% Activation” value is recorded as 99.4% and the EC50 is 0.369 µM.
The corresponding values for `CC[C@H](NC(=O)c1ncc(S(=O)(=O)c2ccc(OC(F)(F)F)cc2)cc1N)C(N)=O` [Compound 93, 3-amino-N-[(2S)-1-amino-1-oxobutan-2-yl]-5-{[4-(trifluoromethoxy)phenyl]sulfonyl}pyridine-2-carboxamide] are 96.5% and 0.0955 µM.

Source of the values: patent publication US10047051B2, “Substituted pyridines and method of use” (AbbVie S.á{acute over (.)}r.l., priority 2015, dated 2018).
